# Experimental data: patent US20110152243A1, “NOVEL THIENOPYRROLE COMPOUNDS” (ABBOTT LABORATORIES, priority 2009, published 2011)
# pIC50: −log10 of the molar value.
# Target: PKCθ (Homo sapiens, UniProt Q04759)
# Assay: PKCθ enzyme data at 1 mM ATP
# Assay type: biochemical
# Chain of PKCθ (Q04759 whole entry): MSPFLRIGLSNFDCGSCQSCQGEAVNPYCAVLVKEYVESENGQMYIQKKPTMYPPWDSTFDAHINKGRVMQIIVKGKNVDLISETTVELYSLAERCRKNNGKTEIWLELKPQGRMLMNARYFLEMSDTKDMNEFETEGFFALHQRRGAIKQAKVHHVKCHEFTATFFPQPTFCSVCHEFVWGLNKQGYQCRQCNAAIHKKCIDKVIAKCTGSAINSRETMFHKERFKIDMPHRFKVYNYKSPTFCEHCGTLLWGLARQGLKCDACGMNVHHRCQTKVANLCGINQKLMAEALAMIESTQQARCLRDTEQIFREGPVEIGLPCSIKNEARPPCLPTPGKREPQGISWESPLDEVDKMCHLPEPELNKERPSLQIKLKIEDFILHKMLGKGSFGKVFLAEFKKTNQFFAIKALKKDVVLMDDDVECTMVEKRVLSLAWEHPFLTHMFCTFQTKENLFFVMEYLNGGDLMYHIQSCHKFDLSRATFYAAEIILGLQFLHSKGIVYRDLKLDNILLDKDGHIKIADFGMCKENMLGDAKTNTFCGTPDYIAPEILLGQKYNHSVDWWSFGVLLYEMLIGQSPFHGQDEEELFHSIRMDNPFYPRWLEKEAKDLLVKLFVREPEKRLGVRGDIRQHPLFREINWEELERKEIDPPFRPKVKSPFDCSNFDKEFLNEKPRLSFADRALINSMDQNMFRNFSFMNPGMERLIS
row,SMILES,pIC50
1,CN1CC[C@H](Cn2nc(C3=C(c4c[nH]c5sccc45)C(=O)NC3=O)c3ccccc32)[C@H](F)C1 (relative stereo) [F.4.4],> 7.00
2,O=C1NC(=O)C(c2nn(C[C@H]3CCNC[C@H]3F)c3ccccc23)=C1c1c[nH]c2sccc12 (relative stereo) [G.1.17],> 7.00
3,O=C1NC(=O)C(c2c[nH]c3sccc23)=C1c1nc(N2CC[C@@H]3NCC[C@@H]3C2)nc2ccccc12 (relative stereo) [G.1.19],> 7.00
4,"O=C1NC(=O)C(c2c[nH]c3sccc23)=C1c1nc(N2CCN3CCC[C@@H]3C2)nc2ccccc12 [E.1.1, (R)-3-(2-(Hexahydropyrrolo[1,2-a]pyrazin-2(1H)-yl)quinazolin-4-yl)-4-(6H-thieno[2,3-b]pyrrol-4-yl)-1H-pyrrole-2,5-dione]",> 7.00
5,CC(C1CCN(c2nc(C3=C(c4c[nH]c5sccc45)C(=O)NC3=O)c3ccccc3n2)CC1)N1CCOCC1 (stereo not drawn) [E.1.2],6.30 to 7.00
6,Cc1nccn1CC1CCN(c2nc(C3=C(c4c[nH]c5sccc45)C(=O)NC3=O)c3ccccc3n2)CC1 [E.1.3],6.30 to 7.00
7,CC(C1CCN(c2nc(C3=C(c4c[nH]c5sccc45)C(=O)NC3=O)c3ccccc3n2)CC1)N1CCCC1 (stereo not drawn) [E.1.4],6.00 to 6.30
8,CN(C)CC1CCN(c2nc(C3=C(c4c[nH]c5sccc45)C(=O)NC3=O)c3ccccc3n2)CC1 [E.1.5],> 7.00
9,C[C@@H]1CN(C2CCN(c3nc(C4=C(c5c[nH]c6sccc56)C(=O)NC4=O)c4ccccc4n3)CC2)C[C@H](C)O1 [E.1.6],6.30 to 7.00
10,O=C1CN(c2nc(C3=C(c4c[nH]c5sccc45)C(=O)NC3=O)c3ccccc3n2)CCN1 [E.1.7],6.00 to 6.30
11,CN1CCN(C2CCN(c3nc(C4=C(c5c[nH]c6sccc56)C(=O)NC4=O)c4ccccc4n3)CC2)CC1 [E.1.8],> 7.00
12,N#CC1CCN(c2nc(C3=C(c4c[nH]c5sccc45)C(=O)NC3=O)c3ccccc3n2)CC1 [E.1.9],6.30 to 7.00
13,Cc1noc(C2CCN(c3nc(C4=C(c5c[nH]c6sccc56)C(=O)NC4=O)c4ccccc4n3)CC2)n1 [E.1.10],6.00 to 6.30
14,O=C1NC(=O)C(c2c[nH]c3sccc23)=C1c1nc(N2CCC(CN3CCCC3)CC2)nc2ccccc12 [E.1.11],6.30 to 7.00
15,CC(C1CCN(c2nc(C3=C(c4c[nH]c5sccc45)C(=O)NC3=O)c3ccccc3n2)CC1)N(C)C (stereo not drawn) [E.1.12],6.30 to 7.00
16,O=C1NC(=O)C(c2c[nH]c3sccc23)=C1c1nc(N2CCC(N3CCC3)CC2)nc2ccccc12 [E.1.13],> 7.00
17,NC(=O)C1CCN(c2nc(C3=C(c4c[nH]c5sccc45)C(=O)NC3=O)c3ccccc3n2)CC1 [E.1.14],6.00 to 6.30
18,O=C1NC(=O)C(c2c[nH]c3sccc23)=C1c1nc(N2CCN3C(=O)OCC3C2)nc2ccccc12 (stereo not drawn) [E.1.15],6.00 to 6.30
19,O=C1NC(=O)C(c2c[nH]c3sccc23)=C1c1nc(N2CCC(CN3CCOCC3)CC2)nc2ccccc12 [E.1.16],6.30 to 7.00
20,O=C1NC(=O)C(c2c[nH]c3sccc23)=C1c1nc(N2CCC(CN3CCC3)CC2)nc2ccccc12 [E.1.17],> 7.00
21,O=C1NC(=O)C(c2c[nH]c3sccc23)=C1c1nc(N2CCN(C3CC3)CC2)nc2ccccc12 [E.1.18],> 7.00
22,O=C1NC(=O)C(c2c[nH]c3sccc23)=C1c1nc(N2CCN(CCO)CC2)nc2ccccc12 [E.1.19],> 7.00
23,O=C1NC(=O)C(c2c[nH]c3sccc23)=C1c1nc(N2CCn3c(nnc3C(F)(F)F)C2)nc2ccccc12 [E.1.20],6.30 to 7.00
24,CC(C)N1CCN(c2nc(C3=C(c4c[nH]c5sccc45)C(=O)NC3=O)c3ccccc3n2)CC1 [E.1.21],> 7.00

row,SMILES,pIC50
1,CC(C)(C)N1CCN(c2nc(C3=C(c4c[nH]c5sccc45)C(=O)NC3=O)c3ccccc3n2)CC1 [E.1.22],> 7.00
2,O=C1NC(=O)C(c2c[nH]c3sccc23)=C1c1nc(N2CCC(n3ccnc3)C2)nc2ccccc12 (stereo not drawn) [E.1.23],6.00 to 6.30
3,CN1CCN(c2nc(C3=C(c4c[nH]c5sccc45)C(=O)NC3=O)c3ccccc3n2)CC1(C)C [E.1.24],> 7.00
4,O=C1NC(=O)C(c2c[nH]c3sccc23)=C1c1nc(N2CCC(O)(CN3CCCC3)CC2)nc2ccccc12 [E.1.25],6.30 to 7.00
5,Cc1ncc2n1CCN(c1nc(C3=C(c4c[nH]c5sccc45)C(=O)NC3=O)c3ccccc3n1)C2 [E.1.26],> 7.00
6,O=C1NC(=O)C(c2c[nH]c3sccc23)=C1c1nc(N2CCc3nc[nH]c3C2)nc2ccccc12 [E.1.27],> 7.00
7,CN(C)CC1CCN(c2nc(C3=C(c4c[nH]c5sccc45)C(=O)NC3=O)c3ccccc3n2)C1 (stereo not drawn) [E.1.28],6.30 to 7.00
8,O=C1NC(=O)C(c2c[nH]c3sccc23)=C1c1nc(N2CC[C@H](N3CCCC3)[C@H](F)C2)nc2ccccc12 [E.1.29],6.30 to 7.00
9,O=C1NC(=O)C(c2c[nH]c3sccc23)=C1c1nc(N2CC[C@H](N3CCCC3)[C@@H](F)C2)nc2ccccc12 [E.1.30],> 7.00
10,O=C1NC(=O)C(c2c[nH]c3sccc23)=C1c1nc(N2CC[C@@H](N3CCCC3)[C@H](F)C2)nc2ccccc12 [E.1.32],> 7.00
11,CN(C)[C@H]1CCN(c2nc(C3=C(c4c[nH]c5sccc45)C(=O)NC3=O)c3ccccc3n2)C[C@H]1F [E.1.33],6.30 to 7.00
12,NC1(CCO)CCN(c2nc(C3=C(c4c[nH]c5sccc45)C(=O)NC3=O)c3ccccc3n2)CC1 [E.1.34],> 7.00
13,O=C1NC(=O)C(c2c[nH]c3sccc23)=C1c1nc(N2CCC3(CCN3)CC2)nc2ccccc12 [E.1.35],> 7.00
14,O=C1NC(=O)C(c2c[nH]c3sccc23)=C1c1nc(N2CCC23CCNCC3)nc2ccccc12 [E.1.36],> 7.00
15,CN(C)C1CCN(c2nc(C3=C(c4c[nH]c5sccc45)C(=O)NC3=O)c3ccccc3n2)CC1CO (stereo not drawn) [E.1.37],> 7.00
16,O=C1NC(=O)C(c2c[nH]c3sccc23)=C1c1nc(N2CCn3ncnc3C2)nc2ccccc12 [E.1.38],6.30 to 7.00
17,CN1CC2CCN(c3nc(C4=C(c5c[nH]c6sccc56)C(=O)NC4=O)c4ccccc4n3)CC2C1 (stereo not drawn) [E.1.39],> 7.00
18,Cc1nnc2n1CCN(c1nc(C3=C(c4c[nH]c5sccc45)C(=O)NC3=O)c3ccccc3n1)C2 [E.1.40],> 7.00
19,CN(C)C1(C)CCN(c2nc(C3=C(c4c[nH]c5sccc45)C(=O)NC3=O)c3ccccc3n2)CC1 [E.1.41],6.30 to 7.00
20,CNC1(C)CCN(c2nc(C3=C(c4c[nH]c5sccc45)C(=O)NC3=O)c3ccccc3n2)CC1 [E.1.42],6.30 to 7.00
21,CCC1(N)CCN(c2nc(C3=C(c4c[nH]c5sccc45)C(=O)NC3=O)c3ccccc3n2)CC1 [E.1.43],> 7.00
22,O=C1NC(=O)C(c2c[nH]c3sccc23)=C1c1nc(N2CCN3CCC[C@H]3C2)nc2ccccc12 [E.1.44],> 7.00
23,CN1CCN(c2nc(C3=C(c4c[nH]c5sccc45)C(=O)NC3=O)c3ccccc3n2)CC1CO (stereo not drawn) [E.1.45],> 7.00
24,O=C1NC(=O)C(c2c[nH]c3sccc23)=C1c1nc(N2CCn3cncc3C2)nc2ccccc12 [E.1.46],> 7.00

row,SMILES,pIC50
1,CCc1ncc2n1CCN(c1nc(C3=C(c4c[nH]c5sccc45)C(=O)NC3=O)c3ccccc3n1)C2 [E.1.47],> 7.00
2,O=C1NC(=O)C(c2c[nH]c3sccc23)=C1c1nc(N2CCn3c(cnc3CO)C2)nc2ccccc12 [E.1.48],> 7.00
3,CC(C)(O)c1ncc2n1CCN(c1nc(C3=C(c4c[nH]c5sccc45)C(=O)NC3=O)c3ccccc3n1)C2 [E.1.49],6.30 to 7.00
4,O=C1NC(=O)C(c2c[nH]c3sccc23)=C1c1nc(N2CCn3cnc(CO)c3C2)nc2ccccc12 [E.1.50],> 7.00
5,CN(C)Cc1ncc2n1CCN(c1nc(C3=C(c4c[nH]c5sccc45)C(=O)NC3=O)c3ccccc3n1)C2 [E.1.51],> 7.00
6,CC(O)c1ncc2n1CCN(c1nc(C3=C(c4c[nH]c5sccc45)C(=O)NC3=O)c3ccccc3n1)C2 (stereo not drawn) [E.1.52],> 7.00
7,Cn1cnc2c1CN(c1nc(C3=C(c4c[nH]c5sccc45)C(=O)NC3=O)c3ccccc3n1)CC2 [E.1.53],> 7.00
8,Cn1cnc2c1CCN(c1nc(C3=C(c4c[nH]c5sccc45)C(=O)NC3=O)c3ccccc3n1)C2 [E.1.54],> 7.00
9,CC(C)(O)CN1CCN(c2nc(C3=C(c4c[nH]c5sccc45)C(=O)NC3=O)c3ccccc3n2)CC1 [E.1.55],> 7.00
10,CC(C)(CO)N1CCN(c2nc(C3=C(c4c[nH]c5sccc45)C(=O)NC3=O)c3ccccc3n2)CC1 [E.1.56],> 7.00
11,NC1(CO)CCN(c2nc(C3=C(c4c[nH]c5sccc45)C(=O)NC3=O)c3ccccc3n2)CC1 [E.1.57],> 7.00
12,NC1(C(=O)NC2CC2)CCN(c2nc(C3=C(c4c[nH]c5sccc45)C(=O)NC3=O)c3ccccc3n2)CC1 [E.1.58],> 7.00
13,CN1CC[C@@H]2CN(c3nc(C4=C(c5c[nH]c6sccc56)C(=O)NC4=O)c4ccccc4n3)CC[C@@H]21 [E.1.59],> 7.00
14,"O=C1NC(=O)C(c2c[nH]c3ccsc23)=C1c1nc(N2CCN3CCC[C@@H]3C2)nc2ccccc12 [E.2.1, (R)-3-(2-(Hexahydropyrrolo[1,2-a]pyrazin-2(1H)-yl)quinazolin-4-yl)-4-(4H-thieno[3,2-b]pyrrol-6-yl)-1H-pyrrole-2,5-dione]",> 7.00
15,O=C1NC(=O)C(c2c[nH]c3ccsc23)=C1c1nc(N2CCC(N3CCCCC3)CC2)nc2ccccc12 [E.2.2],> 7.00
16,CN(C)C1CCN(c2nc(C3=C(c4c[nH]c5ccsc45)C(=O)NC3=O)c3ccccc3n2)CC1 [E.2.3],> 7.00
17,O=C1NC(=O)C(c2c[nH]c3ccsc23)=C1c1nc(N2CCN3CCC[C@H]3C2)nc2ccccc12 [E.2.4],> 7.00
18,O=C1NC(=O)C(c2c[nH]c3ccsc23)=C1c1nc(N2CCC(N3CCOCC3)CC2)nc2ccccc12 [E.2.5],6.30 to 7.00
19,O=C1NC(=O)C(c2c[nH]c3ccsc23)=C1c1nc(N2CCC(N3CCCC3)CC2)nc2ccccc12 [E.2.6],> 7.00
20,O=C1NC(=O)C(c2c[nH]c3ccsc23)=C1c1nc(N2CCn3ccnc3C2)nc2ccccc12 [E.2.7],> 7.00
21,O=C1NC(=O)C(c2c[nH]c3ccsc23)=C1c1nc(N2CCn3cnnc3C2)nc2ccccc12 [E.2.8],6.30 to 7.00
22,O=C1NC(=O)C(c2c[nH]c3ccsc23)=C1c1nc(N2CCN3C(=O)CCC3C2)nc2ccccc12 (stereo not drawn) [E.2.9],6.30 to 7.00
23,O=C1NC(=O)C(c2c[nH]c3ccsc23)=C1c1nc(N2CCN3CCCC3C2)nc2ccccc12 (stereo not drawn) [E.2.10],> 7.00
24,O=C1NC(=O)C(c2c[nH]c3sccc23)=C1c1nc(N2CCN3CCC[C@H]3C2)nc2sccc12 [E.3.1],> 7.00
